Data on 10 compounds can be found in publication PMC6684654 (Nature Communications, 2019).

Molecules are shown by their SMILES. Values after ≈ are worked out from the molar mass of the structure shown. Bounds are passed on as bounds.

Common to all, as to test: Antibiotic susceptibility (MIC), automated identification system
Common to all, as to format: cell-based

Test [1] deals with K. pneumoniae ATCC13883. To be noted: Supplementary Table 2; for MIC: Klebsiella pneumoniae, ATCC13883. From the text: (§1) Clinical isolate strains were identified and screened by the Phoenix 100 automated bacterial identification system to rapidly detect antimicrobial resistance. Total DNA was extracted by the TIANamp Bacteria DNA Kit according to the manufacturer’s protocol. The presence of blaNDM-1 was confirmed using a diagnostic kit for NDM-1 (Puruikang Bio Inc., Shenzhen, China) based on fluorescent quantitative polymerase chain reaction assay. According to the instruction, Ct values of less than 37 were considered positive.

Test [2] concerns NDM-1 K. pneumoniae XJ155017. To be noted: Supplementary Table 2; for MIC: Klebsiella pneumoniae.
Source text: as §1

Test [3] concerns NDM-1 K. pneumoniae XJ155018. Particulars: Supplementary Table 2; for MIC: Klebsiella pneumoniae.
Source text: as §1

Test [4] deals with NDM-1 K. pneumoniae XJ155019. To be noted: Supplementary Table 2; for MIC: Klebsiella pneumoniae.
Source text: as §1

In test [5] the test system is E. coli ATCC25922. To be noted: Supplementary Table 1; for MIC: Escherichia coli, ATCC25922.
Source text: as §1

For test [6], the system named is NDM-1 E. coli XJ141026. To be noted: Supplementary Table 1; for MIC: Escherichia coli.
Source text: as §1

Test [7] relates to NDM-1 E. coli XJ141015. To be noted: Supplementary Table 1; for MIC: Escherichia coli.
Source text: as §1

Test [8] deals with NDM-1 E. coli XJ141047. Particulars: Supplementary Table 1; for MIC: Escherichia coli.
Source text: as §1

In test [9] the test system is NDM-1 K. pneumoniae XJ155020. To be noted: Supplementary Table 2; for MIC: Klebsiella pneumoniae.
Source text: as §1

What is called MIC is the lowest concentration found to suppress growth. Read a low MIC as greater potency. As to `NCC[C@H](O)C(=O)N[C@@H]1C[C@H](N)[C@@H](O[C@H]2O[C@H](CN)[C@@H](O)[C@H](O)[C@H]2O)[C@H](O)[C@H]1O[C@H]1O[C@H](CO)[C@@H](O)[C@H](N)[C@H]1O` [Amikacin], the minimum inhibitory concentration (MIC) in test [1], in test [2], in [3], in test [4], in [5] and in test [6] was at most 8 mg/L throughout. For the same compound, the MIC in [7], in test [8] and in test [9] was at most 8 mg/L throughout. Further, the “susceptibility class (MIC)” value in test [1], in test [2], in test [3], in [4], in test [5] and in test [6] was “S” in each case. The “susceptibility class (MIC)” value in test [7], in test [8] and in [9] was “S” in each case.

Take `CC1(C)S[C@@H]2[C@H](NC(=O)[C@H](N)c3ccccc3)C(=O)N2[C@H]1C(=O)O` [Ampicillin]: the minimal inhibitory concentration (MIC) was 16 mg/L (≈ 45.8 µM) in test [1]; above 16 mg/L in [2]; above 16 mg/L in test [3]; above 16 mg/L in test [4]; at most 4 mg/L in [5]; above 16 mg/L in test [6]. In addition, the MIC in test [7], in test [8] and in [9] was above 16 mg/L in each case. Also, the “susceptibility class (MIC)” value in test [1] is “R”; in [2] it was “R”; in test [3], “R”; in test [4], “R”; in test [5], “S”; in [6], “R”. Moreover, the “susceptibility class (MIC)” value in test [7], in test [8] and in test [9] was “R” throughout.

Consider `C[C@H]1[C@H](NC(=O)/C(=N\OC(C)(C)C(=O)O)c2csc(N)n2)C(=O)N1S(=O)(=O)O` [Aztreonam], for which the minimal inhibitory concentration (MIC) in test [1] is at most 2 mg/L; in test [2], above 16 mg/L; in test [3] it was above 16 mg/L; in test [4] it was above 16 mg/L; in [5], at most 2 mg/L; in test [6], above 16 mg/L. Also, the MIC in test [7], in test [8] and in test [9] was above 16 mg/L in each case. The “susceptibility class (MIC)” value in test [1] is reported as “S”; in test [2] it was “R”; in [3], “R”; in test [4], “R”; in [5], “S”; in test [6], “R”. The “susceptibility class (MIC)” value in test [7], in test [8] and in [9] was “R” in each case.

Regarding `Cc1nnc(SCC2=C(C(=O)O)N3C(=O)[C@@H](NC(=O)Cn4cnnn4)[C@H]3SC2)s1` [Cefazolin], the MIC in [1] is at most 4 mg/L; in test [2], above 16 mg/L; in [3], above 16 mg/L; in test [4] it was above 16 mg/L; in test [5], at most 4 mg/L; in test [6], above 16 mg/L. Further, the MIC in [7], in [8] and in test [9] was above 16 mg/L in each case. For the same compound, the “susceptibility class (MIC)” value is “S” in test [1]; “R” in test [2]; “R” in test [3]; “R” in [4]; “S” in test [5]; “R” in test [6]. Also, the “susceptibility class (MIC)” value in test [7], in test [8] and in test [9] was “R” each time.

Take `CO/N=C(\C(=O)N[C@@H]1C(=O)N2C(C(=O)[O-])=C(C[N+]3(C)CCCC3)CS[C@H]12)c1csc(N)n1` [Cefepime]: the MIC was at most 2 mg/L in test [1]; above 16 mg/L in test [2]; above 16 mg/L in [3]; above 16 mg/L in test [4]; at most 2 mg/L in test [5]; above 16 mg/L in test [6]. The MIC in test [7], in test [8] and in test [9] was above 16 mg/L in each case. Moreover, the “susceptibility class (MIC)” value in test [1] is listed as “S”; in test [2], “R”; in test [3] it was “R”; in test [4], “R”; in [5] it was “S”; in test [6], “R”. Moreover, the “susceptibility class (MIC)” value in test [7], in test [8] and in test [9] was “R” each time.

Turning to `O=C(N[C@H](CO)[C@H](O)c1ccc([N+](=O)[O-])cc1)C(Cl)Cl` [Chloramphenicol], the MIC is at most 4 mg/L in [1]; above 16 mg/L in test [2]; above 16 mg/L in test [3]; above 16 mg/L in [4]; at most 4 mg/L in [5]; at most 4 mg/L in test [6]. For the same compound, the minimal inhibitory concentration (MIC) in [7] was above 16 mg/L; in [8], at most 4 mg/L; in test [9], above 16 mg/L. The “susceptibility class (MIC)” value is recorded as “S” in test [1]; “R” in test [2]; “R” in [3]; “R” in [4]; “S” in test [5]; “S” in test [6]. For the same compound, the results for the “susceptibility class (MIC)” value in test [7], in test [8] and in [9] were “R”, “S” and “R”, respectively.

Take `CNC(C)C1CCC(N)C(OC2C(N)CC(N)C(OC3OCC(C)(O)C(NC)C3O)C2O)O1` (centres unmarked) [Gentamicin]: the minimum inhibitory concentration (MIC) is at most 2 mg/L in [1]; at most 2 mg/L in test [2]; at most 2 mg/L in [3]; at most 2 mg/L in [4]; at most 2 mg/L in test [5]; above 8 mg/L in test [6]. Also, the figures for the MIC in test [7], in test [8] and in [9] were at most 2 mg/L, above 8 mg/L and at most 2 mg/L, respectively. The “susceptibility class (MIC)” value in test [1] is on record as “S”; in [2], “S”; in test [3], “S”; in test [4] it was “S”; in test [5], “S”; in test [6], “R”. For the same compound, the “susceptibility class (MIC)” value in test [7] is “S”; in test [8] it was “R”; in [9], “S”.

For the compound `C[C@H]1COc2c(N3CCN(C)CC3)c(F)cc3c(=O)c(C(=O)O)cn1c23` [Levofloxacin], the MIC in test [1] is at most 1 mg/L; in [4], above 8 mg/L; in test [5] it was at most 1 mg/L; in test [6] it was above 8 mg/L; in test [7], above 8 mg/L; in test [8], at most 1 mg/L. Moreover, the MIC in [9] is above 8 mg/L. The “susceptibility class (MIC)” value is “S” in [1]; “R” in [4]; “S” in [5]; “R” in [6]; “R” in test [7]; “S” in [8]. Also, in test [9], the “susceptibility class (MIC)” value is on record as “R”.

Regarding `COc1c(N2C[C@@H]3CCCN[C@@H]3C2)c(F)cc2c(=O)c(C(=O)O)cn(C3CC3)c12` [Moxifloxacin], the minimal inhibitory concentration (MIC) in [1] was at most 1 mg/L; in [2], above 4 mg/L; in test [3], above 4 mg/L; in test [4] it was above 4 mg/L; in test [5], at most 1 mg/L; in test [6], above 4 mg/L. Besides, the minimal inhibitory concentration (MIC) in [7] is above 4 mg/L; in test [8] it was at most 1 mg/L; in test [9] it was above 4 mg/L. In addition, the “susceptibility class (MIC)” value in [1] is recorded as “S”; in test [2], “R”; in test [3] it was “R”; in test [4], “R”; in [5] it was “S”; in [6], “R”. For the same compound, the “susceptibility class (MIC)” value in test [7] is reported as “R”; in [8], “S”; in test [9], “R”.

Regarding `CN(C)[C@@H]1C(O)=C(C(N)=O)C(=O)[C@@]2(O)C(O)=C3C(=O)c4c(O)cccc4[C@@](C)(O)[C@H]3C[C@@H]12` [Tetracycline], the minimal inhibitory concentration (MIC) in [1] is at most 2 mg/L; in test [2], 4 mg/L (≈ 9 µM); in [3], above 8 mg/L; in [4], above 8 mg/L; in [5], at most 2 mg/L; in test [6], above 8 mg/L. Further, the MIC in test [7] was at most 2 mg/L; in test [8], at most 2 mg/L; in [9], above 8 mg/L. In addition, the “susceptibility class (MIC)” value was “S” in test [1]; “S” in test [2]; “R” in test [3]; “R” in test [4]; “S” in [5]; “R” in [6]. For the same compound, the “susceptibility class (MIC)” value in [7] is “S”; in test [8], “S”; in [9], “R”.
